{"source": "patent US20240199572A1", "about": "“COMPOUNDS, COMPOSITIONS, AND METHODS FOR TREATING TYPE 2 DIABETES AND DEMENTIA” (THE BOARD OF TRUSTEES OF THE UNIVERSITY OF ILLINOIS, priority 2021, published 2024)", "tested_on": "C57Bl/6 male mice on a high fat diet (HFD)", "assay": "High-fat diet (HFD) mice treated with CL2-57", "type": "in vivo, mouse", "description": "High-Fat Diet and Drug Treatment. C57Bl/6 male mice (Jackson Laboratories) were placed on a high fat diet (HFD) (60% kcal from fat, Envigo) at 5 weeks. At 10 weeks, mice were acclimated to hydrogel replacement of drinking water (Clear H2O) for 3 days. Then, for six weeks while HFD continued, mice received 10 mg/kg CL2-57 oral gavage Mon/Wed/Fri (vehicle: 9.5% PEG-200, 5% DMSO, 0.1% polysorbate 80 in water) plus 10 mg/kg/day CL2-57 in continuous hydrogel, or vehicle control. Mice were weighed weekly. For fast-refed studies, mice fasted for 16 hours, then refed for 4 hours. Blood glucose was measured with handheld glucometer. Sample size, chosen based on previous experience with glucose tolerance test, was ten mice per treatment. Mice were assigned to treatment groups by cage randomization upon arrival from Jackson Laboratories. Mice were assigned a unique ear tag number to enable blinded tissue analysis and data collection. Treatment and in vivo experimentation were not blinded. No animals were excluded from analysis, and no control for confounders such as cage location or treatment order was performed.\nPlasma/Liver Triglycerides. Blood was collected in EDTA-coated tubes (Becton Dickinson) and centrifuged (3500 rpm, 15 minutes) to separate plasma. Livers were flash frozen in liquid nitrogen, then stored at −80° C. until homogenization in isopropanol. Triglyceride levels were measured using reagents from Wako Diagnostics per manufacturer's protocol.\nGlucose Tolerance Test (GTT). After 16-hour fast, animals were administered 1.5 g/kg body weight (bwt) glucose by intraperitoneal (i.p.) injection. Glucose in tail vein blood was measured at 0, 10, 20, 30, 45, 60, and 120 minutes using a ONETOUCH® […]® glucometer (LifeScan, Inc). Additional blood was collected at multiple points between 0-30 minutes in heparinized capillary tubes and centrifuged, with plasma insulin levels determined by ELISA (ALPCO).\nInsulin Sensitivity Studies. Mice were injected with 1 U/kg bwt HUMALOG® insulin or vehicle (n=3 of each per treatment group) 15 minutes before sacrifice. Liver, subcutaneous fat, and gastrocnemius were collected and homogenized in lysis buffer (50 mM Tris-HCl (pH 7.4), 100 mM NaCl, 1 mM EDTA, 1 mM EGTA, 1% Triton™ X-100, with protease/phosphatase inhibitor (Complete, Roche)). Protein concentration was determined using Bradford reagent (Bio-Rad). Denatured protein (30 μg) was separated by SDS-PAGE (Mini-PROTEAN® TGX™ Gels 10%, Bio-Rad) and transferred to 0.45 μm nitrocellulose membranes. Membranes were blocked with 5% skim milk in TBST (1×TBS+0.1% polysorbate 20) for 1 hour, incubated with primary antibodies overnight at 4° C., washed with TBST, and incubated with horseradish peroxidase (HRP)-linked secondary antibodies for 1 hour. After TBST wash, Clarity™ Western ECL Substrate (Bio-Rad) was added. Blots were imaged and analyzed using a ChemiDoc™ MP and Image Lab Ver 6.0 (Bio-Rad). Protein levels were normalized to GAPDH (muscle) or β-actin (liver, adipose) for quantification. Primary antibodies: Cell Signaling Technology 4060 (pS473Akt, RRID:AB_2315049), 13038 (pT308Akt, RRID:AB_2629447), 4691 (pan-Akt, RRID:AB_915783), 5174 (GAPDH, RRID:AB 10622025) and Sigma A2228 (3-actin, RRID:AB_476697).\nqRT-PCR. For cell samples, treated cells were lysed with RLT plus lysis buffer (Qiagen). RNA was isolated with Qiagen RNEASY® Plus columns per manufacturer instructions, then reverse-transcribed to cDNA using […]® III Reverse Transcriptase (200 U/μL, Invitrogen) per supplier protocol. qPCR experiments were either performed with TAQMAN® gene expression master mix (Invitrogen) on a StepOne™ qPCR instrument or with […]® SYBR® Green SuperMix (Quanta Biosciences) on CFX Connect™ Real-Time PCR Detection System (BioRad), with fold-change quantified by ΔΔCt. […]", "key": {"[1]": {"conditions": "HFD mice, compared to vehicle control"}, "[2]": {"conditions": "plasma, fold change with CL2-57 vs. vehicle in HFD mice"}}, "note": "Marks after values point to notes of the source that are not given here.", "data": [{"smiles": "CCOC(=O)c1cccc(NC(=O)c2sc(Cl)cc2S(=O)(=O)N(C)c2ccc(OCC)c(OCC)c2)c1", "note": "[CL2-57, ethyl 3-(5-chloro-3-(N-(3,4-diethoxyphenyl)-N-methylsulfamoyl)thiophene-2-carboxamido) benzoate]", "values": [{"measurement": "Attenuation of HFD increases of plasma proinflammatory lipid mediators (lysophospholipids)", "setting": "HFD mice", "value": "20-60%"}, {"measurement": "Brown adipose or liver mass", "setting": "HFD mice", "value": "no change"}, {"measurement": "Fall of liver mRNA encoding PPARα", "setting": "HFD mice", "value": 75, "unit": "%"}, {"measurement": "Gluconeogenic metabolites", "setting": "HFD mice", "value": "reduced"}, {"measurement": "HFD increase of NO precursors arginine and guanidinosuccinate", "setting": "HFD mice", "value": "reversed"}, {"measurement": "HFD-increased liver oxysterol metabolites 7-hydroxycholesterol and 4-cholesten-3-one", "setting": "HFD mice", "value": "reversed"}, {"measurement": "Insulin secretion during the first 20 minutes of the GTT", "setting": "HFD mice", "value": "negligible change"}, {"measurement": "Liver Abcg1 expression", "setting": "HFD mice", "value": "unchanged"}, {"measurement": "Liver Abcg5 expression", "setting": "HFD mice", "value": "significantly reduced"}, {"measurement": "Liver Cyp7-a1 mRNA", "setting": "HFD mice", "value": "diminishing trend"}, {"measurement": "Liver Lpcat3 expression", "setting": "HFD mice", "value": "significantly reduced"}, {"measurement": "Liver Scd1 expression", "setting": "HFD mice", "value": "significantly reduced"}, {"measurement": "Liver Srebf1 mRNA", "setting": "HFD mice", "value": "small increase"}, {"measurement": "Liver cholesterol (reduced in HFD mice)", "setting": "HFD mice", "value": "normalized to baseline"}, {"measurement": "Liver free fatty acid (FFA) concentrations reduced by", "setting": "HFD mice", "value": "40-90%"}, {"measurement": "Plasma FFAs decreased", "setting": "HFD mice", "value": "5-20%"}, {"measurement": "Plasma levels of cholesterol and oxysterol metabolites", "setting": "HFD mice", "value": "unaffected"}, {"measurement": "Tissue mass composition by TD-NMR", "setting": "HFD mice", "value": "shifted tissue mass from fat to lean"}, {"measurement": "Circulating arachidonic acid (AA) increase over diet controls", "setting": "HFD mice treated with CL2-57, vehicle 120%", "value": 37, "unit": "%"}, {"measurement": "Blood glucose concentrations following single i.p. glucose injection", "setting": "HFD mice, GTT, vs vehicle", "value": "lower"}, {"measurement": "Glucose tolerance test, total area under the curve reduced by", "setting": "HFD mice, after five weeks, 2-hour test", "value": 20, "unit": "%"}, {"measurement": "Decrease in plasma TGs", "setting": "[1]", "value": 25, "unit": "%"}, {"measurement": "Decrease of liver G6PC expression", "setting": "[1]", "value": 73, "unit": "%"}, {"measurement": "Decrease of liver Pck1 expression", "setting": "[1]", "value": 70, "unit": "%"}, {"measurement": "HFD increases of the four gluconeogenic precursors, in particular glutamine and glycerol", "setting": "[1]", "value": "attenuated"}, {"measurement": "Liver triglycerides (TGs) reduced by", "setting": "[1]", "value": 35, "unit": "%"}, {"measurement": "Fasting/refed glucose and insulin levels", "setting": "HFD mice, initially", "value": "Little change"}, {"measurement": "Adipose Akt phosphorylation", "setting": "HFD mice, insulin challenge", "value": "No treatment effect"}, {"measurement": "Liver Akt phosphorylation at Ser473 with insulin", "setting": "HFD mice, insulin challenge", "value": "did not change"}, {"measurement": "Liver Akt phosphorylation at Thr308 with insulin", "setting": "HFD mice, insulin challenge", "value": "increased"}, {"measurement": "Skeletal muscle insulin sensitivity versus vehicle", "setting": "HFD mice, insulin challenge", "value": "dramatically increased"}, {"measurement": "Mature, nuclear form of SREBP1c protein", "setting": "HFD mice, liver", "value": "unchanged"}, {"measurement": "Uncleaved, endoplasmic reticulum form of SREBP1c protein", "setting": "HFD mice, liver", "value": "corresponding increase"}, {"measurement": "mRNA levels of proinflammatory enzymes, cytokines and chemokines (COX2, NOS2, TNFα, IL-6, CCL2, CXCL10)", "setting": "HFD mice, liver and adipose", "value": "substantially lowered"}, {"measurement": "Liver ABCA1 protein", "setting": "HFD mice, liver homogenates", "value": "increased"}, {"measurement": "Liver Abca1 expression", "setting": "HFD mice, liver homogenates", "value": "increased"}, {"measurement": "Lean tissue mass", "setting": "HFD mice, on average", "value": "gained"}, {"measurement": "Weight gain", "setting": "HFD mice, over six weeks, vehicle 17%", "value": "8 % of baseline"}, {"measurement": "White adipose tissue mass reduced by, proportional to body weight", "setting": "HFD mice, visceral (renal) and superficial (inguinal) fat pads", "value": "> 20", "unit": "%"}, {"measurement": "Liver monoacylglycerols (MAGs) decreased", "setting": "compared to HFD alone", "value": "83-97%"}, {"measurement": "Creatinine, urea, and bilirubin", "setting": "markers of global inflammation and/or organ toxicity", "value": "unaffected"}, {"measurement": "1-Arachidonoyl-GPA (20:4), HED Drug/ Chow Veh", "setting": "[2]", "value": "0.65^†"}, {"measurement": "1-Arachidonoyl-GPC (20:4n6), HED Drug/ Chow Veh", "setting": "[2]", "value": "0.73^††"}, {"measurement": "1-Arachidonoyl-GPE (20:4n6), HED Drug/ Chow Veh", "setting": "[2]", "value": "0.73^††"}, {"measurement": "1-Arachidonoyl-GPI (20:4), HED Drug/ Chow Veh", "setting": "[2]", "value": "0.75^†"}, {"measurement": "1-Lignoceroyl-GPC (24:0), HED Drug/ Chow Veh", "setting": "[2]", "value": 0.99}, {"measurement": "1-Linolenoyl-GPC (18:3), HED Drug/ Chow Veh", "setting": "[2]", "value": 0.85}, {"measurement": "1-Linoleoyl-GPA (18:2), HED Drug/ Chow Veh", "setting": "[2]", "value": "0.57^††"}, {"measurement": "1-Linoleoyl-GPC (18:2), HED Drug/ Chow Veh", "setting": "[2]", "value": "0.81^†"}, {"measurement": "1-Linoleoyl-GPE (18:2), HED Drug/ Chow Veh", "setting": "[2]", "value": 0.81}, {"measurement": "1-Linoleoyl-GPG (18:2), HED Drug/ Chow Veh", "setting": "[2]", "value": "0.75^†"}, {"measurement": "1-Linoleoyl-GPI (18:2), HED Drug/ Chow Veh", "setting": "[2]", "value": 0.72}, {"measurement": "1-Linoleoyl-GPS (18:2), HED Drug/ Chow Veh", "setting": "[2]", "value": "0.39^††"}, {"measurement": "1-Oleoy1-GPI (18:1), HED Drug/ Chow Veh", "setting": "[2]", "value": "0.58^†"}, {"measurement": "1-Oleoyl-GPC (18:1), HED Drug/ Chow Veh", "setting": "[2]", "value": 0.84}, {"measurement": "1-Oleoyl-GPE (18:1), HED Drug/ Chow Veh", "setting": "[2]", "value": 0.79}, {"measurement": "1-Oleoyl-GPS (18:1), HED Drug/ Chow Veh", "setting": "[2]", "value": "0.62^†"}, {"measurement": "1-Palmitoleoyl-GPC (16:1), HED Drug/ Chow Veh", "setting": "[2]", "value": 0.81}, {"measurement": "1-Palmitoyl-GPA (16:0), HED Drug/ Chow Veh", "setting": "[2]", "value": "0.64^††"}, {"measurement": "1-Palmitoyl-GPC (16:0), HED Drug/ Chow Veh", "setting": "[2]", "value": "0.83^†"}, {"measurement": "1-Palmitoyl-GPE (16:0), HED Drug/ Chow Veh", "setting": "[2]", "value": 0.95}, {"measurement": "1-Palmitoyl-GPI (16:0), HED Drug/ Chow Veh", "setting": "[2]", "value": "0.56^††"}, {"measurement": "1-Palmitoyl-GPS (16:0), HED Drug/ Chow Veh", "setting": "[2]", "value": 0.77}, {"measurement": "1-Stearoyl-GPC (18:0), HED Drug/ Chow Veh", "setting": "[2]", "value": 0.94}, {"measurement": "1-Stearoyl-GPE (18:0), HED Drug/ Chow Veh", "setting": "[2]", "value": 0.91}, {"measurement": "1-Stearoyl-GPI (18:0), HED Drug/ Chow Veh", "setting": "[2]", "value": 0.82}, {"measurement": "2-Palmitoleoyl-GPC (16:1), HED Drug/ Chow Veh", "setting": "[2]", "value": 1.08}, {"measurement": "2-Palmitoyl-GPC (16:0), HED Drug/ Chow Veh", "setting": "[2]", "value": 0.81}, {"measurement": "2-Stearoyl-GPE (18:0), HED Drug/ Chow Veh", "setting": "[2]", "value": "0.74^††"}, {"measurement": "Docosahexaenoate (DPA; 22:6n3), HED Drug/ Chow Veh", "setting": "[2]", "value": 0.76}, {"measurement": "Docosapentaenoate (n3 DPA; 22:5n3), HED Drug/ Chow Veh", "setting": "[2]", "value": "0.60^†"}, {"measurement": "Docosapentaenoate (n6 DPA; 22:5n6), HED Drug/ Chow Veh", "setting": "[2]", "value": 0.92}, {"measurement": "Eicosapentaenoate (EPA; 20:5n3), HED Drug/ Chow Veh", "setting": "[2]", "value": "0.60^†"}, {"measurement": "Sphingadienine, HED Drug/ Chow Veh", "setting": "[2]", "value": "0.55^††"}, {"measurement": "Sphinganine, HED Drug/ Chow Veh", "setting": "[2]", "value": "0.67^††"}, {"measurement": "Sphinganine-1-phosphate, HED Drug/ Chow Veh", "setting": "[2]", "value": 0.73}, {"measurement": "Sphingosine, HED Drug/ Chow Veh", "setting": "[2]", "value": 0.73}, {"measurement": "Sphingosine-1-phosphate, HED Drug/ Chow Veh", "setting": "[2]", "value": 0.93}]}]}
